Several values for one entry are separate records, joined by “and”; a condition that tells them apart may be missing. Identical values can stand only once.

Series [1] has as its system C57BL6 female mice. In words: Cumulus oocyte complex yield after PMSG superovulation, doxorubicin with or without NMN. The settings on record: per mouse, single dose doxorubicin 10 mg/kg i.p. and/or NMN 2 g/L drinking water, 2 months post doxorubicin. In kind it is in vivo. The protocol: To assess oocyte yield, and mice were hormonally stimulated to superovulated by intraperitoneal injection with 7.5 IU/mL of Pregnant Mare's Serum Gonadotropin (PMSG) (Folligon; Intervet, Boxmeer, Holland) to stimulate follicular growth. After 44-46 hours, ovaries were collected in HEPES-buffered minimum essential medium (aMEM; […] Sigma Aldrich, St. Louis, Mo.) and 100 μM IBMX (Sigma Aldrich). […] NMN was delivered through addition to drinking water at 2 g/L, for a final dose of approximately 165 mg/kg. Administration of NMN began one day prior to doxorubicin administration. […] Ovaries were then punctured to release MI oocytes. In a separate cohort of animals, the same experiment was repeated using animals treated with the platinum based chemotherapy drug cisplatin. In FIG. 6 and Table 1, numbers of cumulus oocyte complexes are listed.

A further series deals with C57BL6 mice. In words: Breeding trial with NMN in drinking water. The series is classed as in vivo. The settings on record: NMN 2 g/L drinking water. The text has this:
FIG. 4. A) is a graph showing litter size. C57BL6 mice were maintained on normal drinking water supplemented with or without NMN (2 g/L) from 2 months of age. From 4 months of age, animals were timed mated with proven stud male C57BL6. Pregnancy was confirmed using micro-ultrasound for the presence of a foetal heartbeat, and the number of pups born in subsequent litters recorded. B) is a graph showing body weights of pups from breeding trials at 12 days of age.
(§1) To determine whether NMN treatment could improve overall, functional fertility, we conducted a breeding trial in C57BL6 mice. Both pregnancy success rates and litter size (FIG. 4A) were improved in animals that received NMN, further confirming the importance of this mechanism to female fertility. Offspring from females that received NMN treatment developed at a similar rate to offspring from untreated females, even after challenging with high fat feeding (FIG. 5A and 5B).

In series [2] the test system is C57BL6 females. Briefly: Reversal design: primordial follicle counts in ovarian histology sections. The series is classed as in vivo, mice. The settings on record: doxorubicin 10 mg/kg i.p., NMN in drinking water started four weeks later for 4 weeks; per mouse. From the text:
(§2) Ovaries were dissected from freshly euthanased animals, and preserved in 10% neutral buffered formalin for 24 hr, followed by 70% ethanol, until embedding in paraffin blocks. Blocks were sectioned on a microtome and subjected to haematoxylin and eosin (H&E) staining. Primordial follicles were manually counted by a blinded investigator.
Next, we decided to investigate whether NMN treatment delivered some time following chemotherapy treatment could actively reverse chemotherapy induced infertility. […] Four weeks later, they received NMN in their drinking water, for another 4 weeks, prior to being euthanased for either oocyte studies or ovarian histological analysis. The rationale of this experimental design is to investigate whether NMN has the ability to induce regeneration of the ovary. According to the standard dogma of reproductive biology, mammals are born with a set number of follicles which are slowly released as oocytes over the course of a lifetime, with the ovaries incapable of regenerating new follicles.

A further series has as its system ovaries. In words: Histological analysis of ovaries from NMN treated females. In kind it is in vivo, mice.
Description: as §2
To determine the impact of NMN on spindle assembly, oocytes from C57BL6 mice were next stained for spindle structure (FIG. 3F).

The subject of series [3] is C57BL6 females. In words: Reversal design: oocyte yield, cisplatin followed by NMN 4 weeks later. In kind it is in vivo, mice. To be noted: cisplatin 5 mg/kg i.p., per mouse. As to the method:
To assess oocyte yield, and mice were hormonally stimulated to superovulated by intraperitoneal injection with 7.5 IU/mL of Pregnant Mare's Serum Gonadotropin (PMSG) (Folligon; Intervet, Boxmeer, Holland) to stimulate follicular growth. After 44-46 hours, ovaries were collected in HEPES-buffered minimum essential medium (aMEM; Gibco Life Technologies, Grand Island, N.Y.) supplemented with 50 µM of 3-isobuty-1-methylxanthine (IBMX) (Sigma aldrich, NSW, AU) (M2 medium) to maintain meitotic arrest at germinal vesicle stage. Cumulus oocyte complexes (COCs) were isolated from preovulatory follicles using a 27-gauge needle and collected using flame-pulled borosilicate Pasteur pipettes in M2 medium supplemented with 3 mg/ml bovine serum albumin (BSA; Sigma Aldrich, St. Louis, Mo.) and 100 μM IBMX (Sigma Aldrich). Cumulus oocyte complexes (COCs) were mechanically denuded of cumulus cells by pipetting, and the denuded oocytes were transferred to another dish containing a drop of fresh M2-medium plus IBMX on heat block with 37° C. with lid to protect oocytes from light.
Next, we decided to investigate whether NMN treatment delivered some time following chemotherapy treatment could actively reverse chemotherapy induced infertility. […]

Series [4] relates to C57BL6 female mice. In words: Mating trial after doxorubicin with or without NMN co-treatment. The series is classed as in vivo. To be noted: for Number of mating rounds required to achieve pregnancy: the values are: cumulative % of females pregnant by round. As to the method:
Following oocyte counting and analysis of oocyte meiotic progression, as well as a separate cohort of animals for histological ovarian analysis, a separate cohort of animals were treated as indicated, and mated with stud males of proven track record, to assess the ability of animals to deliver live births following chemotherapy treatment in the presence of absence of NMN co-treatment.

Series [5] has as its system offspring of C57BL6 females. Briefly: Offspring of NMN treated females: development and glucose tolerance. The series is classed as in vivo, mice. To be noted: offspring from NMN treated versus untreated females.
Description: FIG. 5. Offspring from NMN treated females, or non-NMN treated females, were maintained on a chow diet or subjected to feeding of a high fat diet (HFD) from 8 weeks of age. A) is a graph of body weights of animals until 23 weeks of age. B) is a graph of fat mass of animals after 7 weeks of HFD feeding. C) is a graph of glucose tolerance test in animals at 7 weeks after chow or HFD feeding (2 g/kg, 6 hr fast). D) is a graph of area under the curve for glucose tolerance tests. Each group represents offspring from at least 7 different females. Error bars are SD.
as §1

Another series relates to SwissTacAusb female mice. In words: Oocyte yield in high fat fed mice treated with NMN. In kind it is in vivo. The settings on record: SwissTacAusb females, 3 months high fat feeding; NMN versus untreated high fat fed littermates. The text has this: Systemic treatment with the NAD^+ precursor nicotinamide mononucleotide (NMN) increases intracellular NAD^+ levels, and we hypothesised that NMN treatment could restore the activity of SIRT2 to stabilise BubR1 and maintain oocyte reserve and competence into later ages. We obtained 15 month-old female mice, an age at which this species is functionally infertile, and treated them with NMN through addition to drinking water (2 g/L) for 4 weeks. Animals were super-ovulated, and oocyte yield was assessed. […] Obesity is a major risk factor for female infertility, and to assess whether a similar mechanism was at work, we subjected young SwissTacAusb female mice to 3 months of high fat feeding, followed by NMN treatment for 4 weeks.

In another series the test system is oocytes. Briefly: Meiotic progression (GVBD, PBE) of harvested oocytes, doxorubicin with or without NMN. The settings on record: doxorubicin and/or NMN. The series is classed as in vivo, mice. The text has this: Once harvested from ovaries, oocytes were stored in IBMX media to prevent progression into meiosis.

Regarding `NC(=O)c1ccc[n+]([C@@H]2O[C@H](COP(=O)([O-])O)[C@@H](O)[C@H]2O)c1` [NMN, nicotinamide mononucleotide], the “Numbers of cumulus oocyte complexes released from mice” value in the series with C57BL6 female mice [1] is “able to protect against doxorubicin induced oocyte loss and 33 and 17 and 15 and 10 and 18 and 13”. Moreover, the Litter size entry with C57BL6 mice is recorded as “improved”. Further, the Pregnancy success rates result in the series with C57BL6 mice is reported as “improved”. In the series with C57BL6 females [2], the “Primordial follicle numbers in ovarian histology sections” value was 108 and 86 and 94 and 78. Moreover, the “Oogonial reserve, histological analysis of ovaries” value with ovaries is “improved oogonial reserve”. Also, the Oocyte yield entry with C57BL6 females [3] was “restoration of oocyte number and 9 and 17 and 10”. The Number of mating rounds required to achieve pregnancy in the series with C57BL6 female mice [4] (Round 0) stood at 0%; in the series with C57BL6 female mice [4] (Round 1), 60%; in the series with C57BL6 female mice [4] (Round 2), 80%; in the series on C57BL6 female mice [4] (Round 3), 88%. Moreover, the “Body weight of pups born to females receiving NMN” value with C57BL6 female mice [4] (day 12 of age) is “no difference in body weight”. Also, the “Glucose tolerance tests in offspring” value in [5] was “no change”. The “Oocyte yield in high fat fed mice” value in the series on SwissTacAusb female mice is recorded as “higher oocyte yield”. For the same compound, the “Proportion of harvested oocytes achieving germinal vesicle breakdown” value in the series on oocytes (1 h after release from IBMX) was 17 % of total; with oocytes (2 h after release from IBMX), 67 % of total. Also, the “Proportions of oocytes achieving polar body extrusion” value in the series with oocytes (14 hr following GVBD) is recorded as 79; in the series on oocytes (16 hr following GVBD) it was 50; with oocytes (20 hr following GVBD), 80.

Source of the values: US20200368198A1, “METHODS FOR INCREASING FERTILITY” (NEWSOUTH INNOVATIONS PTY LIMITED, priority 2017, published 2020).
